Measured values published in patent US12600732B2, “Bifunctional compounds for degrading BTK via ubiquitin proteosome pathway” (NURIX THERAPEUTICS, INC., priority 2019, dated 2026).

How the values were obtained:
[1] = system: TMD8 cells; assay: Cell viability assay (CellTiter-Glo), TMD8 cells; details: for EC50: Homo sapiens, TMD8, 72 h; for EMAX (% viable cells): TMD8 cells, treatment time 72 h
Method: Cell viability was determined using CellTiter-Glo 2.0 Luminescent Cell Viability Assay (Promega, G9242), which quantitates the amount of ATP present as a proxy for the number of viable cells in culture. Cells were plated with densities between 2000-4000 cells per well in 96-well plates. […] CellTiter-Glo reagent was added to cells at a dilution of 1:20, and the plate was incubated ten minutes at room temperature prior to reading the luminescence signal using an EnVision plate reader. Controls included cells treated with DMSO and wells that contained no cells, only media. Background luminescence signal was determined by control wells containing no cells, only media, and was then subtracted from all sample wells. Luminescence values were then normalized to DMSO-treated wells and reported at proportion viable cells.
Here, the ability of CTMs to affect viability in BTK-dependent cell lines was assessed.

[2] = system: TMD8 C481S cells; assay: Cell viability assay (CellTiter-Glo), TMD8 C481S cells; details: for EC50: Homo sapiens, TMD8, 72 h; for EMAX (% viable cells): TMD8 C481S cells, treatment time 72 h
[3] = target: T1, BTK (Mus musculus, UniProt P35991); assay: In vivo degradation of BTK in mouse PD experiments with oral dosing
T1 construct: from tissue; host or cells: mouse blood B cells / splenocytes (CD-1 or BALB/c)
T1 sequence (P35991 whole entry): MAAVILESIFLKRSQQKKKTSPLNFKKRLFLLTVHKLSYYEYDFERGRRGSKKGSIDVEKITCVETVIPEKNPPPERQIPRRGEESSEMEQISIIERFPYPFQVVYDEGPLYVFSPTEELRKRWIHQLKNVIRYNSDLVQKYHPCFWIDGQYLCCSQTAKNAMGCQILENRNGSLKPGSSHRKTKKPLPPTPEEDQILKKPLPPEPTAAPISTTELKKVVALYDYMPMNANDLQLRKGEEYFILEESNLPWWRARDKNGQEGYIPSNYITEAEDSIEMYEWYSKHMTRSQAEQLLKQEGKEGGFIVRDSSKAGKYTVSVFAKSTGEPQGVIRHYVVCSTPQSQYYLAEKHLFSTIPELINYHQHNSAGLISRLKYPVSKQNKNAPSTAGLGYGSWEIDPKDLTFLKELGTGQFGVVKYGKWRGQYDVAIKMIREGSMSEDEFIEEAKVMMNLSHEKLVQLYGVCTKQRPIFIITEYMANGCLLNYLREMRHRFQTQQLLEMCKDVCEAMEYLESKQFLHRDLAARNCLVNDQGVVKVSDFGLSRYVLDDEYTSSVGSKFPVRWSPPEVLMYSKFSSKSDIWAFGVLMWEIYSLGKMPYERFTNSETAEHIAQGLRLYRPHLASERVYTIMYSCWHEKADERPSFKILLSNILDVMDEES
Method: A method of determining the pharmacodynamic profile of BTK degraders was performed by dosing either CD-1 or BALB/c mice with CTM. The CTM was prepared in a suitable formulation and was administered via oral gavage (PO) at a suitable dose level and frequency as informed by prior pharmacokinetic and tolerability studies. Following administration of CTM, BTK levels in blood or splenocytes are measured using flow cytometry or HTRF. For assessment of BTK levels via flow cytometry, either whole blood or splenocytes were first treated with ACK RBC lysis buffer to facilitate lysing of red blood cells. Remaining cells were then stained with fluorophore-conjugated antibodies against CD45, TCR beta and CD45R (B220). Cell pellets were washed with 1×PBS, fixed, and permeabilized for twenty-four hours with Foxp3/Transcription Factor Fixation/Permeabilization Kit. Cells were then stained intracellularly with unconjugated BTK antibody and detected with a fluorophore-conjugated secondary antibody. Stained cells were run on an Attune N×T Acoustic Focusing Flow Cytometer (Thermo-Fisher A29004), and data was analyzed using FlowJo (v10.5.3) and GraphPad Prism (v7.00) software. Lymphocytes were gated for B cells defined as CD45+ TCR beta−B220+ and T cells as CD45+ TCR beta+B220−. The BTK geometric mean fluorescence intensity (MFI) was calculated for B and T cells. Percent BTK degradation for each compound-treated sample was calculated using the equation described below: % Degradation=100*(Treated sample B cell BTK MFI-treated sample T cell BTK MFI)/Vehicle B cell BTK MFI-Vehicle T cell BTK MFI)
This example evaluates in vivo activity of BTK CTMs via a direct mouse PD measurement following oral dosing
Screens were completed at 90 mg/kg for six hours, and then changed to lower doses/longer time points after seeing strong BTK degradation activity with an initial set of compounds. This assay was useful in selecting compounds for in vivo efficacy experiments.

[4] = oral dose 90 mg/kg, 6 h, splenocytes, HTRF
[5] = oral dose 3 mg/kg, 6 h, blood, flow cytometry
[6] = oral dose 30 mg/kg, 24 h, blood, flow cytometry
[7] = oral dose 30 mg/kg, 24 h, splenocytes, HTRF

SMILES | EC50 [1] | EMAX (% viable cells) [1] | EC50 [2] | EMAX (% viable cells) [2] | % BTK Remaining [3, 6] | other results
CN1CCN([C@@H]2CCCN(c3cnc(C(N)=O)c(Nc4ccc(N5CCN(C[C@H]6CCN(c7ccc8c(c7)C(=O)N(C7CCC(=O)NC7=O)C8=O)C6)CC5)cc4)n3)C2)C1=O (stereo partly shown) [Compound 42] | 0.217 nM | 40% | 1.96 nM | 57% | – | % BTK Remaining [3, 4]: 5%
CN1CCN([C@@H]2CCCN(c3cnc(C(N)=O)c(Nc4ccc(C5CCN(c6ccc7c(c6)C(=O)N(C6CCC(=O)NC6=O)C7=O)CC5)cc4)n3)C2)C1=O (stereo partly shown) [Compound 47] | 3.83 nM | 39% | 43.5 nM | 61% | – | % BTK Remaining [3, 4]: 80%
CN1CCN([C@@H]2CCCN(c3cnc(C(N)=O)c(Nc4ccc(N5CCN(CC6CCN(c7ccc8c(c7)C(=O)N(C7CCC(=O)NC7=O)C8=O)CC6)CC5)cc4)n3)C2)C1=O (stereo partly shown) [Compound 49] | 0.61 nM | 28% | 3.86 nM | 23% | – | % BTK Remaining [3, 4]: <1%
CN1CCN([C@@H]2CCCN(c3cnc(C(N)=O)c(Nc4ccc(C5CCN(CC6CN(c7ccc8c(c7)C(=O)N(C7CCC(=O)NC7=O)C8=O)C6)CC5)cc4)n3)C2)C1=O (stereo partly shown) [Compound 54] | 0.61 nM | 13% | 7.11 nM | 6% | – | % BTK Remaining [3, 4]: 1%
CN1CCN([C@@H]2CCCN(c3cnc(C(N)=O)c(Nc4ccc(N5CCN(C[C@@H]6CCN(c7ccc8c(c7)C(=O)N(C7CCC(=O)NC7=O)C8=O)C6)CC5)cc4)n3)C2)C1=O (stereo partly shown) [Compound 59] | 0.15 nM | 31% | 2.03 nM | 52% | – | % BTK Remaining [3, 4]: 7%
CN1CCN([C@@H]2CCCN(c3cnc(C(N)=O)c(Nc4ccc(N5CCN(CC6CN(c7ccc8c(c7)C(=O)N(C7CCC(=O)NC7=O)C8=O)C6)CC5)cc4)n3)C2)C1=O (stereo partly shown) [Compound 60] | 0.97 nM | 20% | 8.37 nM | 26% | – | % BTK Remaining [3, 4]: 3%
CN1CCN([C@H]2CCCN(c3cnc(C(N)=O)c(Nc4ccc(N5CCC6(CCN(c7ccc8c(c7)C(=O)N(C7CCC(=O)NC7=O)C8=O)CC6)CC5)nc4)n3)C2)C1=O (stereo partly shown) [Compound 80] | 45.2 nM | 45% | 125 nM | 78% | 52% | % BTK Remaining ([3]; oral dose 0.3 mg/kg, 24 h, blood, flow cytometry): 88%; % BTK Remaining ([3]; oral dose 0.3 mg/kg, 24 h, splenocytes, flow cytometry): 115%; % BTK Remaining [3, 5]: 96%; % BTK Remaining ([3]; oral dose 3 mg/kg, 24 h, blood, flow cytometry): 77%; % BTK Remaining ([3]; oral dose 3 mg/kg, 24 h, splenocytes, flow cytometry): 111%; % BTK Remaining ([3]; oral dose 10 mg/kg, 24 h, blood, flow cytometry): 59%; % BTK Remaining ([3]; oral dose 10 mg/kg, 24 h, splenocytes, flow cytometry): 74%; % BTK Remaining ([3]; oral dose 30 mg/kg, 24 h, splenocytes, flow cytometry): 69%; % BTK Remaining ([3]; oral dose 90 mg/kg, 24 h, blood, flow cytometry): 48%; % BTK Remaining ([3]; oral dose 90 mg/kg, 24 h, splenocytes, flow cytometry): 65%
CN1CCN([C@@H]2CCCN(c3cnc(C(N)=O)c(Nc4ccc(C5CCN(C[C@H]6CCN(c7ccc8c(=O)n(C9CCC(=O)NC9=O)ccc8c7)C6)CC5)cc4)n3)C2)C1=O (stereo partly shown) [Compound 115] | 2.74 nM | 13% | 1.93 nM | 16% | 30% | –
NC(=O)c1ncc(N2CCC3(COC3)C2)nc1Nc1ccc(C2CCN(C[C@H]3CCN(c4ccc5c(c4)C(=O)N(C4CCC(=O)NC4=O)C5=O)C3)CC2)cc1 (stereo partly shown) [Compound 176] | – | – | – | – | – | % BTK Remaining [3, 7]: 48%
Cn1c(=O)n([C@@H]2CCC(=O)NC2=O)c2ccc(N3CC[C@H](CN4CCC(c5ccc(Nc6nc(N7CCCCC7)cnc6C(N)=O)cc5)CC4)C3)cc21 [Compound 196] | – | – | – | – | 33% | –
Cn1c(=O)n([C@@H]2CCC(=O)NC2=O)c2ccc(N3CC[C@@H](CN4CCC(c5ccc(Nc6nc(N7CCCCC7)cnc6C(N)=O)cc5)CC4)C3)cc21 [Compound 197] | – | – | – | – | 13% | –
CN1CCN([C@@H]2CCCN(c3cnc(C(N)=O)c(Nc4ccc(C5CCN(C[C@H]6CCN(c7ccc8c(c7)n(C)c(=O)n8[C@@H]7CCC(=O)NC7=O)C6)CC5)cc4)n3)C2)C1=O [Compound 198] | – | – | – | – | 25% | –
CN1CCN([C@@H]2CCCN(c3cnc(C(N)=O)c(Nc4ccc(C5CCN(C[C@@H]6CCN(c7ccc8c(c7)n(C)c(=O)n8[C@@H]7CCC(=O)NC7=O)C6)CC5)cc4)n3)C2)C1=O [Compound 199] | – | – | – | – | 20% | –
CN1CCN([C@@H]2CCCN(c3cnc(C(N)=O)c(Nc4ccc(C5CCN(C[C@H]6C[C@H](Nc7cccc8c7C(=O)N([C@@H]7CCC(=O)NC7=O)C8=O)C6)CC5)cc4)n3)C2)C1=O [Compound 202] | – | – | – | – | 79% | –
O=C1CC[C@H](N2C(=O)c3ccc(N4CC[C@H](CN5CCC(c6ccc(Nc7nc(-c8nccs8)cn8ccnc78)cc6)CC5)C4)cc3C2=O)C(=O)N1 [Compound 203] | – | – | – | – | 95% | –
CN1CCN([C@@H]2CCCN(c3cnc(C(N)=O)c(Nc4cnc(N5CCN(C[C@H]6CCN(c7ccc8c(c7)C(=O)N([C@@H]7CCC(=O)NC7=O)C8=O)C6)CC5)nc4)n3)C2)C1=O [Compound 204] | – | – | – | – | – | % BTK Remaining [3, 7]: 87%
CN1CCN([C@@H]2CCCN(c3cnc(C(N)=O)c(Nc4ccc(C5CCN(C[C@H]6CCN(c7ccc8c(c7)C(=O)N([C@@H]7CCC(=O)NC7=O)C8=O)C6)CC5)nc4)n3)C2)C1=O [Compound 207] | – | – | 0.009 nM | 54% | – | % BTK Remaining [3, 7]: 46%
CN1CCN([C@@H]2CCCN(c3cnc(C(N)=O)c(Nc4cnn(C5CN(CC6CCN(c7ccc8c(c7)C(=O)N([C@@H]7CCC(=O)NC7=O)C8=O)CC6)C5)c4)n3)C2)C1=O [Compound 209] | 7.41 nM | 49% | 55.2 nM | 44% | – | –
CN1CCN([C@@H]2CCCN(c3cnc(C(N)=O)c(Nc4ccc(N5CCC6(CCN(Cc7ccc8c(c7)CN([C@@H]7CCC(=O)NC7=O)C8=O)CC6)CC5)cc4)n3)C2)C1=O [Compound 210] | 5.61 nM | 32% | 5.29 nM | 40% | – | –
CN1CCN([C@@H]2CCCN(c3cnc(C(N)=O)c(Nc4cc5n(n4)CCN(C[C@H]4CCN(c6ccc7c(c6)C(=O)N(C6CCC(=O)NC6=O)C7=O)C4)C5)c3)C2)C1=O (stereo partly shown) [Compound 214] | – | – | – | – | – | % BTK Remaining [3, 5]: 100%
CS(=O)(=O)c1ccc(Nc2nc(N3CCC[C@@H](NC(=O)OCC4CCN(c5ccc6c(c5)C(=O)N([C@H]5CCC(=O)NC5=O)C6=O)CC4)C3)cnc2C(N)=O)cc1 [Compound 218] | – | – | – | – | – | % BTK Remaining ([3]; oral dose 1 mg/kg, 6 h, splenocytes, HTRF): 97%
Cc1cc(Nc2nc(N3CCC[C@@H](N4CCC5(CCN(CC6CCN(c7ccc8c(c7)C(=O)N(C7CCC(=O)NC7=O)C8=O)CC6)CC5)C4=O)C3)cnc2C(N)=O)sn1 (stereo partly drawn) [compound 205, 5-[(3R)-3-[8-({1-[2-(2,6-dioxopiperidin-3-yl)-1,3-dioxoisoindol-5-yl]piperidin-4-yl}methyl)-1-oxo-2,8-diazaspiro[4.5]decan-2-yl]piperidin-1-yl]-3-[(3-methyl-1,2-thiazol-5-yl)amino]pyrazine-2-carboxamide] | – | – | – | – | – | % BTK Remaining [3, 7]: 66%
Cn1cc(Nc2nc(N3CCC[C@@H](N4CC5(CN(CC6CN(c7ccc8c(c7)C(=O)N(C7CCC(=O)NC7=O)C8=O)C6)C5)OC4=O)C3)cnc2C(N)=O)cn1 (stereo partly drawn) [compound 213, 5-((3R)-3-(2-((1-(2-(2,6-dioxopiperidin-3-yl)-1,3-dioxoisoindolin-5-yl)azetidin-3-yl)methyl)-6-oxo-5-oxa-2,7-diazaspiro[3.4]octan-7-yl)piperidin-1-yl)-3-((1-methyl-1H-pyrazol-4-yl)amino)pyrazine-2-carboxamide] | – | – | – | – | – | % BTK Remaining [3, 5]: 97%
